Source: patent US11078182B2, “Heteroaromatic compounds as Vanin inhibitors” (Boehringer Ingelheim International GmbH, priority 2018, dated 2021)

Legend:
[1] = biological target: FLAG-tagged Vanin-1 (AA 22-493, T26I) (Homo sapiens (Human), UniProt O95497, T26I); assay: Vanin-1 enzymatic assay; type: biochemical; conditions: 0.1 nM Vanin-1, 3 μM D-pantethine, pantothenic acid formation by RapidFire MS; geometric mean if multiple measurements; read-out: VNN 1 IC50
Description: The test compounds are dissolved in 100% DMSO at a concentration of 10 mM and in a first step diluted in DMSO to a concentration of 5 mM, followed by serial dilution steps in 100% DMSO. Dilution factor and number of dilution steps may vary according to needs. Typically 8 different concentrations by 1:5 dilutions are prepared, a further intermediate dilutions of the substances is carried out with assay buffer resulting in 1% final DMSO concentration in the assay.
0.1 nM of FLAG-tagged Vanin-1 (AA 22-493, T26I, produced internally) and test compounds are incubated at room temperature for 20 minutes in assay buffer (1 mM DTT, 0.0025% Brij-35, 50 mM HEPES, pH7.5). D-Pantethine (Sigma, Cat #P2125-5G) in assay buffer is added (final concentration 3 μM) and incubated for additional 30 minutes at room temperature. Total assay volume typically is 40 μl but might be adjusted according to needs. Reaction is stopped by adding equal volume of stop solution as the reaction mixture to reach 100 nM HD-pantothenic acid (as an internal standard) and 1% TFA. Assay plates are centrifuged for 2 minutes and the formation of pantothenic acid is detected by RapidFire Mass Spectrometry (mobile phase A: 0.1% formic acid and 0.01% trifluoroacetic acid in water; mobile phase B: 47.5% acetonitrile, 47.5% methanol, 0.1% formic acid and 0.01% trifluoroacetic acid in water) using a C18, 12 μL cartridge (Agilent Cat #G9205A).
The values given in Table I result from measurements of one or more samples. In case of multiple measurements the geometric mean values are given.

Pantetheinase (vanin) = assay: Human Whole Blood assay; type: cell-based; conditions: pantethine substrate, pantothenic acid formation by RapidFire MS, read-out: HWB IC50
Description: Pantetheinase (vanin) converts panteheine into pantothenic acid and cysteamine. Accordingly, in the described protocol vanin activity is quantified by formation of pantothenic acid after pantetheine supplementation via pantethine. The assay is applicable to identify vanin inhibitors. Compound stocks are dissolved in DMSO at 10 mM. Further dilutions are performed in RPMI 1640 medium (Gibco, #A-10491-01) and final concentrations in the assay are 0.032 nM-500 nM.
Human blood is drawn into a blood bag (1% heparin, 50 I.E./mL). Blood is aliquoted into cavities of 96-deep-well plates at 290 μL and mixed with 10 μL compound solution or vehicle (30 sec at 1400 rpm on a shaker). Equilibration follows at room temperature, 250 rpm and for 30 min. The assay is starts by adding 10 μL of substrate solution (20 μM pantethine in 1 mM DTT, 0.0025% Brij-35, 50 mM HEPES, pH7.5) to each well, except for some blank wells which receive […] substrate buffer (1 mM DTT, 0.0025% Brij-35, 50 mM HEPES, pH7.5) only. Samples are thoroughly shaken (30 sec, 1400 rpm) and reaction is allowed to take place at room temperature, 250 rpm and for 5 min. The reaction is stopped by addition of a vanin tool inhibitor in excess (BI-1 total conc. 10 μM). Centrifugation of the plate follows at 4° C., 665 G for 10 min. Then the blood plasma samples (100 μL) are transferred into another 96-deep-well plate and proteins are precipitated (5 min on ice) by adding 100 μL of ice cold precipitation solution (1 μM labelled pantothenic acid (di-β-alanine-13C6,15N2 calcium salt, Sigma, #705837) in acetonitrile). Afterwards the plate is centrifuged (4° C., 3220 G, 10 min) and supernatants (50 μL) are collected into another 96-deep-well plate and mixed (10 sec, 1400 rpm) with 150 μL ice cold formic acid (0.1%, Carl Roth GmbH+Co.KG, #CP03.1). The formation of pantothenic acid is detected by RapidFire Mass Spectrometry. A TripleQuad 6500+ (ABSciex, Germany) is equipped with an LC-1290 system, a RapidFire autosampler (Agilent, Germany) and a C18 cartridge Type C 12 μL (Agilent Cat #G9526-80000). Mobile phase A is consisting of 0.09% formic acid and 0.01% trifluoroacetic acid in water and mobile phase B of 0.09% formic acid and 0.01% trifluoroacetic acid in acetonitrile/methanol/water=47.5/47.5/5.

Sequence of FLAG-tagged Vanin-1 (AA 22-493, T26I) (O95497 22-493 T26I): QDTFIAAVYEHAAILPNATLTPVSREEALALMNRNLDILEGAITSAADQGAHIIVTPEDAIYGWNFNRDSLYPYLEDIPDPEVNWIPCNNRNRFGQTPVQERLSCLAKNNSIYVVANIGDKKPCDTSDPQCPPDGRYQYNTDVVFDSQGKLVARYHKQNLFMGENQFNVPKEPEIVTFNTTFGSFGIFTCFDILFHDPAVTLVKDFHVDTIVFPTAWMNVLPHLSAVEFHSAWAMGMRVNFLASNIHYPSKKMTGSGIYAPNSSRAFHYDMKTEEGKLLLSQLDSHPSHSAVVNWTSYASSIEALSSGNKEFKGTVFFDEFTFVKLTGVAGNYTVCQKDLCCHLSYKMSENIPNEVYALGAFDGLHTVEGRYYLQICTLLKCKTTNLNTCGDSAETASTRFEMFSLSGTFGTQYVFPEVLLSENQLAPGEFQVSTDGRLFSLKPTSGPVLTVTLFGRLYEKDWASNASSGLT

SMILES	IC50 [1]	IC50 (Pantetheinase (vanin))
CC1(C#N)CCN(C(=O)c2ccc(NC(C)(C)C)nc2)C1 (single isomer, unassigned) [Example 7, 1-[6-(tert-Butylamino)pyridine-3-carbonyl]-3-methylpyrrolidine-3-carbonitrile]	0.3 nM	3.9 nM
CN(C(=O)C1CCC1)[C@H]1CCN(C(=O)c2ccc(NC(C)(C)C)nc2)C1 [Example 1.1, N-[(3S)-1-[6-(tert-Butylamino)pyridine-3-carbonyl]pyrrolidin-3-yl]-N-methylcyclobutanecarboxamide]	0.2 nM	4.3 nM
CN(C(=O)C1CC(F)(F)C1)[C@H]1CCN(C(=O)c2ccc(NC(C)(C)C)nc2)C1 [Example 1.2]	0.2 nM	3.6 nM
CN(C(=O)[C@@H]1CCCO1)[C@H]1CCN(C(=O)c2ccc(NC(C)(C)C)nc2)C1 [Example 1.3]	0.3 nM	2.7 nM
CN(C(=O)c1ccc(Cl)s1)[C@H]1CCN(C(=O)c2ccc(NC(C)(C)C)nc2)C1 [Example 1.4]	0.3 nM	25.2 nM
CN(C(=O)C1CC1)[C@H]1CCN(C(=O)c2ccc(NC(C)(C)C)nc2)C1 [Example 1.5]	0.3 nM	4.2 nM
CC(C)(C)Nc1ccc(C(=O)N2CC[C@H](N3CCOC3=O)C2)cn1 [Example 1.6]	0.3 nM	4 nM
CN(C(=O)c1cc(C(F)(F)F)nn1C)[C@H]1CCN(C(=O)c2ccc(NC(C)(C)C)nc2)C1 [Example 1.7]	0.3 nM	5 nM
CN(C(=O)C1(C#N)CC1)[C@H]1CCN(C(=O)c2ccc(NC(C)(C)C)nc2)C1 [Example 1.8]	0.3 nM	5.8 nM
CC(C)(C)Nc1ccc(C(=O)N2CC[C@H](N3CCCC3=O)C2)cn1 [Example 1.9]	0.4 nM	3.1 nM
CN(C(=O)C1CCOC1)[C@H]1CCN(C(=O)c2ccc(NC(C)(C)C)nc2)C1 (some centres unmarked) [Example 1.10]	0.4 nM	
CN(C(=O)c1ccc(F)cc1)[C@H]1CCN(C(=O)c2ccc(NC(C)(C)C)nc2)C1 [Example 1.11]	0.4 nM	7.5 nM
Cc1cc(C(=O)N(C)[C@H]2CCN(C(=O)c3ccc(NC(C)(C)C)nc3)C2)[nH]n1 [Example 1.12]	0.4 nM	9.7 nM
CN(c1ncccn1)[C@H]1CCN(C(=O)c2ccc(NC(C)(C)C)nc2)C1 [Example 1.13]	0.4 nM	12.6 nM
CC(C)(C)Nc1ccc(C(=O)N2CC[C@H](N3CCCCC3=O)C2)cn1 [Example 1.14]	0.8 nM	12.5 nM
CN(C(=O)[C@H]1CCCO1)[C@H]1CCN(C(=O)c2ccc(NC(C)(C)C)nc2)C1 [Example 1.15]	1 nM	
CN(C(=O)CN1CCOCC1)[C@H]1CCN(C(=O)c2ccc(NC(C)(C)C)nc2)C1 [Example 1.16]	1.3 nM	
CC1CN([C@H]2CCN(C(=O)c3ccc(NC(C)(C)C)nc3)C2)C(=O)O1 (stereo partly drawn) [Example 6, 3-[(3S)-1-[6-(tert-Butylamino)pyridine-3-carbonyl]pyrrolidin-3-yl]-5-methyl-1,3-oxazolidin-2-one]	1.6 nM	
CC(C)(C)Nc1ccc(C(=O)N2CC(C)(c3ccccn3)C2)cn1 [Example 8, N-tert-Butyl-5-[3-methyl-3-(pyridin-2-yl)azetidine-1-carbonyl]pyridin-2-amine]	0.3 nM	2.7 nM

Further lines, results first:

IC50 [1]	IC50 (Pantetheinase (vanin))	SMILES
0.3 nM	4.6 nM	CN(C(=O)C1CC1)[C@H]1CCN(C(=O)c2ccc(NC3(C)CCC3)nc2)C1 [Example 2.1, N-Methyl-N-[(3S)-1-{6-[(1-methylcyclobutyl)amino]pyridine-3-carbonyl}pyrrolidin-3-yl]cyclopropanecarboxamide]
0.4 nM	7.7 nM	CC(=O)N(C)[C@H]1CCN(C(=O)c2ccc(NC(C)(C)C(C)C)nc2)C1 [Example 2.2]
0.7 nM		CN(C(=O)C1CC1)[C@H]1CCN(C(=O)c2ccc(NC3(C)CCCC3)nc2)C1 [Example 2.3]
1.7 nM		CC1(Nc2ccc(C(=O)N3CC[C@H](N4CCCC4=O)C3)cn2)CCCCC1 [Example 2.4]
7.3 nM		CN(C(=O)C1CC1)[C@H]1CCN(C(=O)c2ccc(NC3(C)CCOCC3)nc2)C1 [Example 2.5]
0.4 nM	9.2 nM	CN(C(=O)C1CC1)[C@H]1CCN(C(=O)c2ccc(NC34CC(C3)C4)nc2)C1 [Example 2.6]
0.2 nM	1.6 nM	CC(=O)N(C)[C@H]1CCN(C(=O)c2ccc(NC(C)(C)CCO)nc2)C1 [Example 3.1, N-[(3S)-1-{6-[(4-Hydroxy-2-methylbutan-2-yl)amino]pyridine-3-carbonyl}pyrrolidin-3-yl]-N-methylacetamide]
0.2 nM	3.1 nM	CCC(C)(C)Nc1ccc(C(=O)N2CC[C@H](N(C)C(C)=O)C2)cn1 [Example 3.2]
0.4 nM	8.7 nM	CC(=O)N(C)[C@H]1CCN(C(=O)c2ccc(NC(C)(C)Cc3ccc(F)cc3)nc2)C1 [Example 3.3]
2.1 nM		CC(=O)N(C)[C@H]1CCN(C(=O)c2ccc(NC(C)(C)CCn3cncn3)nc2)C1 [Example 3.4]
0.3 nM	3.2 nM	CN(C(=O)N1CCOCC1)[C@H]1CCN(C(=O)c2ccc(NC(C)(C)C)nc2)C1 [Example 4.1, N-[(3S)-1-[6-(tert-Butylamino)pyridine-3-carbonyl]pyrrolidin-3-yl]-N-methylmorpholine-4-carboxamide]
1.2 nM		CN1CCN(C(=O)N(C)[C@H]2CCN(C(=O)c3ccc(NC(C)(C)C)nc3)C2)CC1 [Example 4.2]
0.5 nM	3.2 nM	CC(=O)N(C)[C@H]1CCN(C(=O)c2ccc(NC(C)(C)C)nc2)C1 [Example 5.1, N-[(3S)-1-[6-(tert-Butylamino)pyridine-3-carbonyl]pyrrolidin-3-yl]-N-methylacetamide]
	267 nM	CC(=O)N(C)[C@@H]1CCN(C(=O)c2ccc(NC(C)(C)C)nc2)C1 [Example 5.2]
